Experimental data taken from the supplement of paper PMC11061612.

How the values were obtained:
Assay in all cases: Bliss excess, mean over the matrix (fraction); higher = more synergy
[1] = test system: SK-GT-2 (Gastric Carcinoma)
Method in brief: (§1)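 Cell lines grown in DMEM/F12 or RPMI with 10% FBS were plated in 1536-well plates and held 24 hours at 37°C, 5% CO2 before 72 hours of exposure to two-drug dose matrices, with DMSO typically at 0.2%. CellTiter-Glo 2.0 luminescence gave viability, which was converted to inhibition. Vehicle wells were set to 0 and blank wells to 1. Combination Emax is the second-highest inhibition in the matrix, and Bliss excess is the observed combination effect minus the expected EA + EB − EA·EB, where EA and EB are the single-agent effects.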

[2] = test system: VMRC-RCZ (Kidney Carcinoma)
Method in brief: as §1

[3] = test system: 8505C (Thyroid Gland Carcinoma)
Method in brief: as §1

[4] = test system: NCI-H661 (Non-Small Cell Lung Carcinoma)
Method in brief: as §1

[5] = test system: SK-GT-4 (Esophageal Adenocarcinoma)
Method in brief: as §1

RD (Rhabdomyosarcoma) = test system: RD (Rhabdomyosarcoma)
Method in brief: as §1

SJSA-1 (Osteosarcoma) = test system: SJSA-1 (Osteosarcoma)
Method in brief: as §1

[6] = test system: RPMI-8226 (Plasma Cell Myeloma)
Method in brief: as §1

[7] = test system: CW-2 (Colorectal Carcinoma)
Method in brief: as §1

[8] = test system: SNU-398 (Hepatocellular Carcinoma)
Method in brief: as §1

[9] = test system: COR-L279 (Small Cell Lung Carcinoma)
Method in brief: as §1

[10] = test system: NCI-H520 (Squamous Cell Lung Carcinoma)
Method in brief: as §1

[11] = test system: HCC1419 (Breast Carcinoma)
Method in brief: as §1

[12] = test system: NCI-H929 (Plasma Cell Myeloma)
Method in brief: as §1

[13] = test system: KYSE-270 (Esophageal Squamous Cell Carcinoma)
Method in brief: as §1

[14] = test system: KMS-12-BM (Plasma Cell Myeloma)
Method in brief: as §1

M059J (Glioblastoma) = test system: M059J (Glioblastoma)
Method in brief: as §1

[15] = test system: ST486 (Burkitt's Lymphoma)
Method in brief: as §1

[16] = test system: DAN-G (Pancreatic Carcinoma)
Method in brief: as §1

[17] = test system: MOG-G-CCM (Low Grade Glioma)
Method in brief: as §1

Row | SMILES | Bliss excess [1] | Bliss excess [2] | Bliss excess [3] | Bliss excess [4] | Bliss excess [5] | Bliss excess (RD (Rhabdomyosarcoma)) | Bliss excess (SJSA-1 (Osteosarcoma)) | Bliss excess [6] | Bliss excess [7] | Bliss excess [8] | Bliss excess [9] | Bliss excess [10] | Bliss excess [11] | Bliss excess [12] | Bliss excess [13] | Bliss excess [14] | Bliss excess (M059J (Glioblastoma)) | Bliss excess [15] | Bliss excess [16] | Bliss excess [17]
1 | CN(C)CCCOc1ccc(-c2ccc3ncc4c(c3c2)n(C2CCOCC2)c(=O)n4C)cn1 [AZD0156] + C=CCn1c(=O)c2cnc(Nc3ccc(N4CCN(C)CC4)cc3)nc2n1-c1cccc(C(C)(C)O)n1 [AZD1775] (first compound max 1 µM, partner max 1 µM) | -0.0776 | -0.0797 | -0.0492 | -0.0615 | -0.0676 | -0.0377 | -0.0674 | -0.0017 | -0.0106 | -0.0887 | -0.0763 | -0.0692 | -0.0446 | -0.0464 | 0.0314 | 0.0744 | -0.11 | 0.0097 | -0.0064 | -0.0193
2 | CN(C)CCCOc1ccc(-c2ccc3ncc4c(c3c2)n(C2CCOCC2)c(=O)n4C)cn1 [AZD0156] + CCN(CCO)CCCOc1ccc2c(Nc3cc(CC(=O)Nc4cccc(F)c4)[nH]n3)ncnc2c1 [AZD2811] (first compound max 1 µM, 7x7, partner max 1 µM) | -0.0156 | -0.0451 | -0.0257 | -0.0304 | -0.0603 | -0.0374 | -0.0348 | 0.0092 | -0.0163 | -0.0184 | 0.0256 | 0.0012 | -0.0427 | 0.0125 | -0.0307 | 0.13 | -0.0165 | -0.11 | 0.0128 | -0.0228
3 | CN(C)CCCOc1ccc(-c2ccc3ncc4c(c3c2)n(C2CCOCC2)c(=O)n4C)cn1 [AZD0156] + C[C@@H]1COCCN1C2=NC(=NC(=C2)C3(CC3)[S@](=N)(=O)C)C4=C5C=CNC5=NC=C4 [AZD6738] (first compound max 1 µM, 7x7, partner max 10 µM) | 0.0033 | -0.0479 | 0.0051 | 0.0059 | -0.0006 | -0.0333 | -0.0266 | 0.102 | -0.0131 | -0.0039 | -0.0547 | -0.0064 | -0.0295 | -0.0182 | 0.0568 | 0.117 | 0.0092 | 0.0016 | 0.0425 | -0.0593
4 | CN(C)CCCOc1ccc(-c2ccc3ncc4c(c3c2)n(C2CCOCC2)c(=O)n4C)cn1 [AZD0156] + O=C(c1cc(Cc2n[nH]c(=O)c3ccccc23)ccc1F)N1CCN(C(=O)C2CC2)CC1 [Olaparib] (first compound max 3 µM, partner max 3 µM) | 0.0292 | -0.0283 | 0.066 | 0.0145 | 0.0611 | 0.0333 | 0.017 | 0.103 | -0.0031 | 0.0815 | 0.0782 | 0.0671 | -0.0673 | 0.016 | 0.0509 | 0.0448 | 0.0304 | 0.24 | 0.0824 | 0.0005
5 | C=CCn1c(=O)c2cnc(Nc3ccc(N4CCN(C)CC4)cc3)nc2n1-c1cccc(C(C)(C)O)n1 [AZD1775] + C1CN(CCC1(C(=O)N[C@@H](CCO)C2=CC=C(C=C2)Cl)N)C3=NC=NC4=C3C=CN4 [Capivasertib] (first compound max 3 µM, partner max 3 µM) | 0.0174 | -0.083 | -0.101 | -0.0905 | -0.0802 | -0.034 | -0.0088 | 0.0216 | -0.0487 | 0.0054 | -0.0276 | -0.0771 | -0.005 | -0.0234 | – | 0.0629 | -0.064 | 0.0215 | -0.0191 | -0.0224
6 | C=CCn1c(=O)c2cnc(Nc3ccc(N4CCN(C)CC4)cc3)nc2n1-c1cccc(C(C)(C)O)n1 [AZD1775] + C[C@@H]1COCCN1C2=NC(=NC(=C2)C3(CC3)[S@](=N)(=O)C)C4=C5C=CNC5=NC=C4 [AZD6738] (first compound max 1 µM, partner max 10 µM) | -0.0189 | -0.0639 | -0.0076 | 0.0157 | 0.0046 | 0.0125 | 0.0047 | 0.0407 | 0.0554 | -0.0067 | 0.0131 | -0.0133 | -0.0034 | -0.0042 | 0.0567 | 0.0418 | -0.0206 | -0.0044 | -0.0079 | 0.0195
7 | C=CCn1c(=O)c2cnc(Nc3ccc(N4CCN(C)CC4)cc3)nc2n1-c1cccc(C(C)(C)O)n1 [AZD1775] + O=C(c1cc(Cc2n[nH]c(=O)c3ccccc23)ccc1F)N1CCN(C(=O)C2CC2)CC1 [Olaparib] (first compound max 1 µM, partner max 10 µM) | -0.0139 | -0.0443 | – | -0.0179 | -0.0709 | -0.0532 | -0.0262 | -0.0366 | 0.0127 | -0.0396 | -0.0572 | -0.0057 | -0.047 | -0.0525 | -0.0166 | -0.0239 | 0.0374 | -0.0197 | -0.0142 | -0.0542
8 | CCN(CCO)CCCOc1ccc2c(Nc3cc(CC(=O)Nc4cccc(F)c4)[nH]n3)ncnc2c1 [AZD2811] + C=CCn1c(=O)c2cnc(Nc3ccc(N4CCN(C)CC4)cc3)nc2n1-c1cccc(C(C)(C)O)n1 [AZD1775] (first compound max 1 µM, partner max 1 µM) | 0.0008 | -0.0512 | -0.0071 | -0.0029 | -0.0545 | -0.0222 | -0.0109 | -0.0172 | -0.0169 | 0.0295 | 0.0107 | -0.108 | -0.0545 | -0.0671 | -0.0281 | 0.122 | -0.0176 | -0.0925 | -0.0144 | -0.0178
9 | CCN(CCO)CCCOc1ccc2c(Nc3cc(CC(=O)Nc4cccc(F)c4)[nH]n3)ncnc2c1 [AZD2811] + C[C@@H]1COCCN1C2=NC(=NC(=C2)C3(CC3)[S@](=N)(=O)C)C4=C5C=CNC5=NC=C4 [AZD6738] (first compound max 1 µM, 7x7, partner max 10 µM) | -0.0272 | -0.085 | -0.0514 | -0.0567 | -0.0183 | -0.0325 | -0.0348 | -0.0178 | -0.0116 | 0.007 | 0.0322 | -0.0834 | -0.0757 | -0.0341 | -0.0449 | 0.0141 | -0.0138 | -0.0205 | -0.0427 | -0.0116
10 | CCN(CCO)CCCOc1ccc2c(Nc3cc(CC(=O)Nc4cccc(F)c4)[nH]n3)ncnc2c1 [AZD2811] + O=C(c1cc(Cc2n[nH]c(=O)c3ccccc23)ccc1F)N1CCN(C(=O)C2CC2)CC1 [Olaparib] (first compound max 1 µM, 7x7, partner max 10 µM) | 0.0218 | -0.0325 | -0.0228 | -0.0062 | 0.0123 | 0.0106 | -0.0232 | -0.0137 | 0.0119 | -0.0223 | -0.0125 | 0.041 | -0.0532 | 0.0305 | 0.0212 | 0.0456 | -0.0213 | -0.0464 | 0.0092 | -0.041
11 | CN(CCO)CC[C@H](CSc1ccccc1)Nc1ccc(S(=O)(=O)NC(=O)c2ccc(N3CCC([C@@H](O)c4ccccc4-c4ccc(Cl)cc4)CC3)cc2)cc1S(=O)(=O)C(F)(F)F [AZD4320] + C1CN(CCC1(C(=O)N[C@@H](CCO)C2=CC=C(C=C2)Cl)N)C3=NC=NC4=C3C=CN4 [Capivasertib] (first compound max 1 µM, 7x7, partner max 3 µM) | -0.0158 | -0.0429 | -0.155 | -0.0347 | -0.0345 | -0.0764 | 0.0243 | 0.0027 | -0.0284 | -0.032 | 0.0721 | -0.0637 | 0.0421 | -0.0088 | -0.0441 | 0.0181 | -0.0113 | -0.0345 | -0.0354 | -0.0525
12 | CN(CCO)CC[C@H](CSc1ccccc1)Nc1ccc(S(=O)(=O)NC(=O)c2ccc(N3CCC([C@@H](O)c4ccccc4-c4ccc(Cl)cc4)CC3)cc2)cc1S(=O)(=O)C(F)(F)F [AZD4320] + C[C@@H]1COCCN1C2=NC(=NC(=C2)C3(CC3)[S@](=N)(=O)C)C4=C5C=CNC5=NC=C4 [AZD6738] (first compound max 1 µM, 7x7, partner max 10 µM) | 0.0109 | -0.0331 | -0.0298 | -0.0197 | -0.0873 | -0.0334 | -0.113 | 0.0338 | -0.0321 | -0.0452 | 0.0292 | -0.0547 | -0.0752 | -0.0097 | 0.0161 | 0.0012 | – | -0.0502 | -0.0315 | -0.0311
13 | COc1nnc2ccc(N3CCC(c4ccc(OCCN5CCN(C)C(=O)[C@H]5C)cc4)CC3)nn12 [AZD5153] + CN(CC[C@H](CSC1=CC=CC=C1)NC2=C(C=C(C=C2)S(=O)(=O)NC(=O)C3=CC=C(C=C3)N4CCC(CC4)[C@H](C5=CC=CC=C5C6=CC=C(C=C6)Cl)O)S(=O)(=O)C(F)(F)F)CCO [AZD4320] (first compound max 1 µM, 7x7, partner max 1 µM) | 0.0412 | – | 0.0185 | 0.0102 | – | 0.0526 | – | -0.0027 | – | -0.0093 | – | – | -0.0403 | – | – | 0.0143 | – | – | 0.0358 | –
14 | Cc1c2c(nn1C)CSCc1cc(n(C)n1)CSc1cc(c3ccccc3c1)OCCCc1c(C(=O)O)n(C)c3c-2c(Cl)ccc13 [AZD5991] + C1CN(CCC1(C(=O)N[C@@H](CCO)C2=CC=C(C=C2)Cl)N)C3=NC=NC4=C3C=CN4 [Capivasertib] (first compound max 1 µM, 7x7, partner max 3 µM) | -0.0049 | -0.0347 | -0.0111 | 0.0375 | -0.0213 | 0.0465 | -0.0248 | 0.0079 | 0.0132 | 0.034 | 0.0417 | -0.0548 | 0.0163 | -0.0168 | 0.0421 | 0.0127 | -0.101 | – | -0.0535 | -0.0178
